Experimental data published in PMC12829593 (Journal of cystic fibrosis : official journal of the …, 2025).
Values after ≈ are worked out from the molar mass of the structure shown. Read-outs that look alike come from different tables or passages of the source.

What was measured:
[1] = format: in vivo, human; details: mean (SD); for Cavg / Cmin / AUC / Cmax / half-life / Tmax: plasma; for Cavg / Cmin / Cmax: steady state; for AUC / Cmax / half-life / Tmax: human, oral; for AUC: AUCτ, AUC24 (ELX, TEZ) or AUC12 (IVA)
CFTR = details: estimated from published data, compounds used concurrently; cited from earlier work
[2] = Tacrolimus concentration in transplant participants; format: in vivo, human; details: Transplant (n=12), concurrent ETI, mean (SD)
[3] = Transplant group (n=12), concomitant tacrolimus
[4] = T1/2, Non-transplant group (n=14)
[5] = T1/2, Transplant group (n=12), concomitant tacrolimus

Structure (SMILES) | CLss/F ([1]; Non-transplant group (n=14)) | V/F ([1]; Non-transplant group (n=14)) | Cavg ([1]; Non-transplant group (n=14)) | Cmin ([1]; Non-transplant group (n=14)) | CLss/F [1, 3] | V/F [1, 3] | Cavg [1, 3] | Cmin [1, 3] | AUC ([1]; Non-transplant group (n=14)) [ng·h/mL] | AUC [1, 3] [ng·h/mL] | Cmax ([1]; Non-transplant group (n=14)) [ng/mL] | Cmax [1, 3] [ng/mL] | half-life [1, 4] [h] | half-life [1, 5] [h] | Tmax ([1]; Non-transplant group (n=14)) [h] | Tmax [1, 3] [h] | EC50 (CFTR) [µg/mL] | EC90 (CFTR) [µg/mL] | Tacrolimus concentration [2] | Cmin ([1]; Non-transplant group (n=14), listed as IVA) [ng/mL]
CC(C)(CO)c1cc2cc(NC(=O)C3(c4ccc5c(c4)OC(F)(F)O5)CC3)c(F)cc2n1C[C@@H](O)CO [Tezacaftor, tezacaftor] | 1.53(0.83) L/h | 37.1(24.4) | 3294(1314) ng/mL | 1746(1050) ng/mL | 1.54(1.07) L/h | 47.5(59) | 3403(1240) ng/mL | 2016(904) ng/mL | 79000 | 82000 | 7460 | 6520 | 19 | 21 | 2.21 | 3.08 | 0.4 (≈ 0.768 µM) | 3.5 (≈ 6.72 µM) | – | –
C=CC[C@@H]1/C=C(\C)C[C@H](C)C[C@H](OC)[C@H]2O[C@@](O)(C(=O)C(=O)N3CCCC[C@H]3C(=O)O[C@H](/C(C)=C/[C@@H]3CC[C@@H](O)[C@H](OC)C3)[C@H](C)[C@@H](O)CC1=O)[C@H](C)C[C@@H]2OC [Tacrolimus, tacrolimus] | – | – | – | – | – | – | – | – | – | – | – | – | – | – | – | – | – | – | 6.5 (1.5) ng/mL | –
CC(C)(C)c1cc(C(C)(C)C)c(NC(=O)c2c[nH]c3ccccc3c2=O)cc1O [Ivacaftor, ivacaftor] | 27.9 (47.4) L/h | 337 (441) | 947 (507) ng/mL | 525 (325) ng/mL | 19.9 (15.5) L/h | 168 (71) | 833 (342) ng/mL | 467 (203) ng/mL | 11400 | 9900 | 1380 | – | 9.4 | 7.8 | 4 | 4.6 | 0.04 (≈ 0.102 µM) | 0.35 (≈ 0.892 µM) | – | 525
Cc1nn(C)cc1S(=O)(=O)NC(=O)c1ccc(-n2ccc(OCC(C)(C)C(F)(F)F)n2)nc1N1C[C@@H](C)CC1(C)C [Elexacaftor, elexacaftor] | 2.05(2.29) L/h | 107(155) | 6398(3233) ng/mL | 4327(2359) ng/mL | 1.23(0.79) L/h | 37.4(15.0) | 8339(3152) ng/mL | 5632(2664) ng/mL | 154000 | 200000 | 9080 | 11400 | 35 | 23.6 | 4.79 | 7.33 | 0.5 (≈ 0.837 µM) | 4.5 (≈ 7.53 µM) | – | –
